Test results: paper PMC5081312, “Antifouling phenyl ethers and other compounds from the invertebrates and their symbiotic fungi collected from the South China Sea” (AMB Express, 2016)
Read-outs that look alike come from different tables or passages of the source. Starred links: 1 amine or outer side, 2 acyl side, 3 side chain; linkers in the order of their positions; H or OH if unused. Non-standard residues stand in square brackets, D forms with d. Residues, ends and D or L forms follow the SMILES beside them. X1 = O=C(c1cc(O)ccc1N[*:1])[*:2]

Legend:
[1] = tested on: cyprids of barnacle B. amphitrite; assay: Anti-larval settlement bioassay (antifouling activity and larval toxicity); type: in vivo; details: for LC50/EC50 ratio (therapeutic ratio): B. amphitrite cyprids, ratio >15 considered non-toxic; for LC50 / EC50: cyprids of B. amphitrite, 48 h at 28 °C; for LC50: concentration where 50% of larvae were dead; for EC50: concentration where 50% of larvae were inhibited to settle vs negative control, read-out: EC50 (larval settlement inhibition); for inhibition of larval settlement in preliminary screening: B. amphitrite, at 25.0 μg ml^−1
Description: (§1) The newly released nauplii were screened with the aperture of 90 μm. The newly released nauplii were raised in filtered seawater (FSW) at 28 °C with mild aeration and fed with Chaetoceros gracilis Schutt at 1 × 10^6 cells ml^−1. The nauplius larvae transformed into cyprids (ready to attach and metamorphose) after 3.5 days. Newly transformed cyprids were kept in filtered seawater at 4 °C overnight before being used in the anti-larval settlement bioassay.
(§2) The antifouling activity was evaluated as larval settlement inhibition against the cyprids of barnacle B. amphitrite using 24-well polystyrene plates (Nunc, Naperville, CA, USA). Each compound was dissolved in a stock solution of DMSO with the concentration of 50 mg ml^−1, and then diluted 1000 times with FSW to 50 μg ml^−1. The compound was further transferred into FSW to make up the following test solution with the concentrations ranging from 25 to 0.50 μg ml^−1. One millilitre of the test solution and 16–20 larvae were allocated to each well of the 24-well plate. Each concentration had three replicate wells. The plates were cultivated in darkness for 48 h at 28 °C. The effects of the test compounds against the larvae settlement were determined by examining the plates under a dissecting microscope to check for (1) settled larvae (attached and metamorphosed), (2) swimming larvae, as well as (3) any possible toxic effects of the treatments (dead and paralyzed). The number of the settled larvae was expressed as a percentage of the total number of larvae per well. Each compound was tested by triplicate experiments using three different batches of larvae.
(§3) The EC50 and LC50 values of each compound were calculated according to the records of anti-larval settlement experiments. […] Then a concentration–response curve was plotted and a tread line was set up.

[2] = as above; type: in vivo; details: Balanus (Amphibalanus) amphitrite (barnacle cyprid larvae), in vivo, other: larvae immersed in test solution; cyprids of B. amphitrite, 48 h at 28 °C, concentration where 50% of larvae were dead
Description: as §1, §2, §3

Compound | LC50/EC50 ratio (therapeutic ratio) [1] | LC50 [1] | EC50 [1] | EC50 ([1]; Amphibalanus amphitrite, 48 h) | LC50 at 48 h [2] | inhibition of larval settlement in preliminary screening [1]
1-Formyl-4-methyl-7-isopropylazulene [compound 17] | >16.1 | > 236 µM | 14.7 µM | – | – | –
CC(C)C(C)CCC(C)C1CCC(C2=CC(O)C3CC(O)CCC3(C)C2=O)C1(C)CCO (mixture of isomers) [compound 24, (24R)-and(24S)-3β,6α,11-Trihydroxy-methyl-9,11-seco-5α-cholest-7-en-9-one] | – | > 112 µM | > 55.8 µM | – | – | –
CCCOc1cc(C)cc(Oc2cc(C)cc(O)c2)c1 [compound 7, 3-O-propyl-diorcinol] | 11.4 | – | 9.82 µM | < 10 µM | 112 µM | –
CCCCCOc1cc(C)cc(Oc2cc(C)cc(O)c2)c1 [compound 8, 3-O-pentyl-diorcinol] | >5.99 | – | – | 27.9 µM | > 167 µM | –
CC(=O)Oc1cc(C)cc(Oc2cc(C)cc(O)c2)c1 [compound 9, 3-O-acetyl-diorcinol] | – | – | – | – | 64.3 µM | –
CC(=O)Oc1cc(C)cc(Oc2cc(C)cc(OC(C)=O)c2)c1 [compound 11, 3,3′-O-diacetyl-diorcinol] | – | – | – | – | 49.4 µM | –
CCCCCOc1cc(C)cc(Oc2cc(C)cc(OCCCCC)c2)c1 [compound 12, 3,3′-O-dipentyl-diorcinol] | >11.1 | – | – | 12.2 µM | > 135 µM | –
Cc1cc(C=O)c2c(C)ccc(C(C)C)cc1-2 [compound 16, 1-Formylguaiazulene] | – | – | – | 42 µM | 221 µM | –
Cc1cc(C=O)c2c(C)cc3c(cc1-2)[C@@H](C)CO3 [compound 18, Ochracenoid A] | – | – | – | 83.3 µM | 208 µM | –
CC1=CC(=O)c2c1cc(C(C)C)c(C=O)c2C [compound 19, 3,8-Dimethyl-5-isopropyl-6-formylindenone] | – | > 219 µM | > 110 µM | – | – | –
CC1=CC(=O)c2c(C)cc(C(=O)C(C)C)cc21 [compound 20, Ochracenoid B] | – | > 219 µM | > 110 µM | – | – | –
CC1=CC(=O)c2c(C)cc3oc(=O)c(C)c-3cc21 [compound 21, Ketolactone] | – | – | – | > 104 µM | > 208 µM | –
CC(C)CCC(C)C1CCC(C2=CC(O)C3CC(O)CCC3(C)C2=O)C1(C)CCO (stereo not drawn) [compound 23, 3β,6α,11-Trihydroxy-24-nor-9,11-seco-5α-cholest-7-en-9-one] | – | 59.5 µM | 10.7 µM | – | – | completely inhibited
CC(C)C=CC(C)C1CCC(C2=CC(O)C3CC(O)CCC3(C)C2=O)C1(C)CCO (stereo not drawn) [compound 25, (22E)-3β,6α,11-Trihydroxy-24-nor-9,11-seco-5α-cholesta-7,22-dien-9-one] | – | 59.8 µM | 29.9 µM | – | – | completely inhibited
CC(C)CCCC(C)C1CCC(C2=CC(O)C3CC(O)CCC3(C)C2=O)C1(C)CCO (stereo not drawn) [compound 26, 3β,6α,11-Trihydroxy-9,11-seco-5α-cholest-7-en-9-one] | – | 57.6 µM | 28.6 µM | – | – | completely inhibited
C=C(CCC(C)C1CCC(C2=CC(O)C3CC(O)CCC3(C)C2=O)C1(C)CCO)C(C)C (stereo not drawn) [compound 27, 3β,6α,11-Trihydroxy-9,11-seco-5α-cholesta-7,24(28)-dien-9-one] | – | > 56.1 µM | > 56.1 µM | – | – | –
CC(C)C(C)C=CC(C)C1CCC(C2=CC(O)C3CC(O)CCC3(C)C2=O)C1(C)CCO [compound 28, (22E,24R)-3β,6α,11-trihydroxy-24-Methyl-9,11-seco-5α-cholesta-7,22-dien-9-one] | >1.25 | > 56.1 µM | 44.8 µM | – | – | –
CC(C)CC=CC(C)C1CCC(C2=CC(O)C3CC(O)CCC3(C)C2=O)C1(C)CCO (stereo not drawn) [compound 29, (22E)-3β,6α,11-Trihydroxy-9,11-seco-5α-cholesta-7,22-dien-9-one] | – | 57.9 µM | 14.7 µM | – | – | –
CC(=O)OCCC1(C)C(C2=CC(OC(C)=O)C3CC(O)CCC3(C)C2=O)CCC1C(C)C=CCC(C)C (stereo not drawn) [compound 30, (22E)-6,11-Diacetoxy-3-hydroxy-9,11-seco-5α-cholesta-7,22-dien-9-one] | 16.1 | 96.8 µM | 6.01 µM | – | – | –
CC(=O)OCCC1(C)C(C2=CC(OC(C)=O)C3CC(OC(C)=O)CCC3(C)C2=O)CCC1C(C)C=CCC(C)C (stereo not drawn) [compound 31, (22E)-3,6,11-Triacetoxy-9,11-seco-5α-cholesta-7,22-dien-9-one] | 8.00 | 96.8 µM | 12.1 µM | – | – | –

Compound | LC50/EC50 ratio (therapeutic ratio) [1] | LC50 [1] | EC50 [1] | EC50 ([1]; Amphibalanus amphitrite, 48 h) | LC50 at 48 h [2] | inhibition of larval settlement in preliminary screening [1]
C[C@]12CCC[C@H](O1)c1c(cc3c(c1O)C(=O)c1c(O)cc(O)cc1C3=O)O2 [compound 32, Averufin] | >14.7 | > 136 µM | 9.27 µM | – | – | –
COc1cc(O)cc2c1C(=O)c1c(cc3c(c1O)[C@H]1O[C@](C)(CC[C@@H]1O)O3)C2=O [compound 33, 8-O-methylnidurufin] | >8.75 | > 126 µM | 14.4 µM | – | – | –
C[C@]12CC[C@H](O)[C@H](O1)c1c(cc3c(c1O)C(=O)c1c(O)cc(O)cc1C3=O)O2 [compound 34, Nidurufin] | – | > 130 µM | > 65.1 µM | – | – | –
COc1cc(O)cc2c1C(=O)c1c(O)cc(CO)cc1C2=O [compound 35, Questinol] | – | > 167 µM | > 83.3 µM | – | – | –
COc1cc(O)cc2c1C(=O)c1c(O)cc(CO)c(O)c1C2=O [compound 36, ω-Hydroxyrubrocristin] | – | > 158 µM | > 79.1 µM | – | – | –
COc1cc(O)c(-c2c3c(c(O)c4c(OC)cc(O)cc24)C(=O)C=C(C)C3=O)c2cc3c(c(O)c12)C(=O)C[C@@](C)(O)C3 [compound 37, Asperinine A] | >2.88 | > 87.7 µM | 30.5 µM | – | – | –
COc1cc(O)c(-c2c3c(c(O)c4c(OC)cc(O)cc24)C(=O)C=C(C)C3=O)c2cc3c(c(O)c12)C(=O)C[C@@](C)(O)C3 [compound 38, Asperinine B] | >2.22 | > 87.7 µM | 39.5 µM | – | – | –
CC[C@H](O)c1cc(O)c2c(c1)C(=O)c1cc(O)cc(O)c1C2=O [compound 39, Rhodoptilometrin] | 13.4 | 159 µM | 11.9 µM | – | – | –
C=CC(C)(C)c1[nH]c2ccc(CC=C(C)C)cc2c1C=C1NC(=O)C2(C=C3c4cc(O)cc(OC)c4C(=O)c4c(O)cc(C)c(c43)O2)NC1=O (stereo not drawn) [compound 41, 7-O-methylvariecolortide A] | – | > 74.5 µM | > 74.5 µM | – | – | –
C=CC(C)(C)c1[nH]c2ccccc2c1/C=C1\NC(=O)C2(C=C3c4cc(O)cc(O)c4C(=O)c4c(O)cc(C)c(c43)O2)NC1=O (stereo not drawn) [compound 42, Variecolortide B] | – | > 84.9 µM | > 84.9 µM | – | – | –
COc1cc(O)cc(C)c1C(=O)O[C@@H]1[C@H](O)[C@@H](CO)O[C@H]1n1ccc(=O)[nH]c1=O [compound 48, Kipukasin H] | – | > 123 µM | > 61.3 µM | – | – | –
COc1cc(C)c(C(=O)O[C@@H]2[C@H](O)[C@@H](CO)O[C@H]2n2ccc(=O)[nH]c2=O)c(OC)c1 [compound 49, Kipukasin E] | – | > 59.2 µM | > 59.2 µM | – | – | –
COc1cc(C)c(C(=O)O[C@H]2[C@@H](O)[C@H](n3ccc(=O)[nH]c3=O)O[C@@H]2CO)c(OC)c1 [compound 50, Kipukasin D] | – | > 59.2 µM | > 59.2 µM | – | – | –
COc1cc(C)c(C(=O)O[C@@H]2[C@H](OC(C)=O)[C@@H](COC(C)=O)O[C@H]2n2ccc(=O)[nH]c2=O)c(OC)c1 [compound 51, Diacetylkipukasin E] | >2.22 | > 98.8 µM | 44.5 µM | – | – | –
COc1cc(C)c(C(=O)O[C@H]2[C@@H](OC(C)=O)[C@H](n3ccc(=O)[nH]c3=O)O[C@@H]2COC(C)=O)c(OC)c1 [compound 52, Diacetylkipukasin D] | – | > 98.8 µM | > 49.4 µM | – | – | –
COC(=O)c1ccccc1NC(=O)[C@H](CC[S+](C)[O-])NC(=O)c1cnc2c(n1)c(=O)n(C)c(=O)n2C (stereo partly drawn) [compound 53, Penilumamide] | – | > 96.9 µM | > 96.9 µM | – | – | –
C[C@H](NC(=O)c1cnc2c(n1)c(=O)n(C)c(=O)n2C)C(=O)Nc1ccccc1C(N)=O [compound 54, Penilumamide D] | – | > 58.8 µM | > 58.8 µM | – | – | –
C[C@@H]1NC(=O)[C@H](Cc2ccc(O)cc2)NC(=O)c2cc(O)ccc2NC(=O)[C@@H]2CCCN2C(=O)[C@H](C)NC1=O [compound 55, Asperpeptide A] (cyclo(AAP[X1]Y)) | – | > 46.6 µM | > 46.6 µM | – | – | –
Variecolortide C [compound 40] | – | > 82.9 µM | > 82.9 µM | – | – | –
